# Experimental data reported in PubChem BioAssay (NCI).
#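 Cells were grown in 96-well plates and exposed to each compound for 48 hours at five concentrations; endpoints were interpolated linearly between bracketing concentrations, or set to the highest concentration if not reached. TGI: total growth inhibition.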
# What was measured:
# Experiment in all cases: NCI-60 cell line screen, 48 h
# [1] = test system: 786-0 renal
# [2] = test system: A498 renal
# [3] = test system: A549 NSCLC
# [4] = test system: ACHN renal
# [5] = test system: BT-549 breast
# [6] = test system: CAKI-1 renal
# [7] = test system: CCRF-CEM leukemia
# [8] = test system: COLO 205 colon
# [9] = test system: DU-145 prostate
# [10] = test system: EKVX NSCLC
# [11] = test system: HCC-2998 colon
# [12] = test system: HCT-116 colon
# [13] = test system: HCT-15 colon
# [14] = test system: HL-60(TB) leukemia
# [15] = test system: HOP-62 NSCLC
# [16] = test system: HOP-92 NSCLC
# [17] = test system: HS 578T breast
# [18] = test system: HT29 colon
# [19] = test system: IGROV1 ovarian
# [20] = test system: K-562 leukemia
# [21] = test system: KM12 colon
# [22] = test system: LOX IMVI melanoma
# [23] = test system: M14 melanoma
# [24] = test system: MALME-3M melanoma
# [25] = test system: MCF7 breast
# [26] = test system: MDA-MB-231 breast
# [27] = test system: MDA-MB-435
# [28] = test system: MDA-N
# [29] = test system: NCI-H226 lung
# [30] = test system: NCI-H460 lung
# [31] = test system: NCI/ADR-RES ovarian
# [32] = test system: OVCAR-3 ovarian
# [33] = test system: OVCAR-4 ovarian
# [34] = test system: OVCAR-5 ovarian
# [35] = test system: OVCAR-8 ovarian
# [36] = test system: PC-3 prostate
# [37] = test system: RXF 393 renal
# [38] = test system: SF-268 CNS
# [39] = test system: SF-295 CNS
# [40] = test system: SF-539 CNS
# [41] = test system: SK-MEL-2 melanoma
# [42] = test system: SK-MEL-28 melanoma
# [43] = test system: SK-MEL-5 melanoma
# [44] = test system: SK-OV-3 ovarian
# [45] = test system: SN12C renal
# [46] = test system: SNB-19 CNS
# [47] = test system: SNB-75 CNS
# [48] = test system: SR leukemia
# [49] = test system: SW-620 colon
# [50] = test system: TK-10 renal
# [51] = test system: UACC-257 melanoma
# [52] = test system: UACC-62 melanoma
# [53] = test system: UO-31 renal
# [54] = test system: MOLT-4 leukemia
# [55] = test system: NCI-H23 lung
# [56] = test system: NCI-H522 lung
# [57] = test system: RPMI-8226 leukemia
# [58] = test system: T-47D breast
# [59] = test system: U251 CNS
smiles,measurement,setting,value
CCC(CCCN)Nc1cc(OC)cc2cccnc12 (stereo unspecified),TGI,[1],> 100 µM
same,TGI,[2],> 100 µM
same,TGI,[3],> 100 µM
same,TGI,[4],> 100 µM
same,TGI,[5],> 100 µM
same,TGI,[6],> 100 µM
same,TGI,[7],> 100 µM
same,TGI,[8],> 100 µM
same,TGI,[9],> 100 µM
same,TGI,[10],> 100 µM
same,TGI,[11],52.7 µM
same,TGI,[12],> 100 µM
same,TGI,[13],> 100 µM
same,TGI,[14],51.1 µM
same,TGI,[15],> 100 µM
same,TGI,[16],> 100 µM
same,TGI,[17],> 100 µM
same,TGI,[18],> 100 µM
same,TGI,[19],> 100 µM
same,TGI,[20],> 100 µM
same,TGI,[21],> 100 µM
same,TGI,[22],> 100 µM
same,TGI,[23],> 100 µM
same,TGI,[24],> 100 µM
same,TGI,[25],> 100 µM
same,TGI,[26],> 100 µM
same,TGI,[27],> 100 µM
same,TGI,[28],> 100 µM
same,TGI,[29],> 100 µM
same,TGI,[30],> 100 µM
same,TGI,[31],> 100 µM
same,TGI,[32],> 100 µM
same,TGI,[33],> 100 µM
same,TGI,[34],> 100 µM
same,TGI,[35],> 100 µM
same,TGI,[36],> 100 µM
same,TGI,[37],> 100 µM
same,TGI,[38],> 100 µM
same,TGI,[39],> 100 µM
same,TGI,[40],> 100 µM
same,TGI,[41],> 100 µM
same,TGI,[42],> 100 µM
same,TGI,[43],> 100 µM
same,TGI,[44],> 100 µM
same,TGI,[45],> 100 µM
same,TGI,[46],> 100 µM
same,TGI,[47],> 100 µM
same,TGI,[48],> 100 µM
same,TGI,[49],> 100 µM
same,TGI,[50],> 100 µM
same,TGI,[51],62.8 µM
same,TGI,[52],> 100 µM
same,TGI,[53],> 100 µM
COc1ccc2[nH]c(C(=O)N3CC(CCl)c4ccc(N)cc43)cc2c1 (stereo unspecified),TGI,[3],> 86.9 µM
same,TGI,[4],0.375 µM
same,TGI,[5],6.97 µM
same,TGI,[6],0.299 µM
same,TGI,[7],1.44 µM
same,TGI,[10],2.78 µM
same,TGI,[11],0.383 µM
same,TGI,[13],> 50.4 µM
same,TGI,[14],0.631 µM
same,TGI,[15],> 100 µM
same,TGI,[16],> 100 µM
same,TGI,[17],1.32 µM
same,TGI,[18],0.508 µM
same,TGI,[20],0.494 µM
same,TGI,[21],0.406 µM
same,TGI,[22],0.601 µM
same,TGI,[23],0.319 µM
same,TGI,[24],0.302 µM
same,TGI,[25],> 39.1 µM
same,TGI,[26],0.545 µM
same,TGI,[27],0.405 µM
same,TGI,[28],0.347 µM
same,TGI,[54],> 100 µM
same,TGI,[29],> 100 µM
same,TGI,[55],0.501 µM
same,TGI,[30],3.24 µM
same,TGI,[56],0.0882 µM
same,TGI,[31],2.28 µM
same,TGI,[33],0.609 µM
same,TGI,[34],> 30.1 µM
same,TGI,[35],> 68.9 µM
same,TGI,[36],10 µM
same,TGI,[57],> 35.4 µM
same,TGI,[37],0.251 µM
same,TGI,[40],1.7 µM
same,TGI,[41],0.396 µM
same,TGI,[42],> 31.6 µM
same,TGI,[43],0.195 µM
same,TGI,[44],> 100 µM
same,TGI,[45],1.62 µM
same,TGI,[46],> 44.5 µM
same,TGI,[47],0.475 µM
same,TGI,[48],> 100 µM
same,TGI,[49],> 100 µM
same,TGI,[58],> 100 µM
same,TGI,[50],> 100 µM
same,TGI,[59],> 31.6 µM
same,TGI,[52],0.376 µM
